Test results taken from ChEMBL document CHEMBL3046048, “Design and synthesis of new 2,4,5-triarylimidazole derivatives as selective cyclooxygenase (COX-2) inhibitors” (Med Chem Res, 2012).
pIC50: −log10 of the molar value.

Molecular target: T1, Prostaglandin G/H synthase 1 (Ovis aries, UniProt P05979)
T1 sequence (P05979 whole entry): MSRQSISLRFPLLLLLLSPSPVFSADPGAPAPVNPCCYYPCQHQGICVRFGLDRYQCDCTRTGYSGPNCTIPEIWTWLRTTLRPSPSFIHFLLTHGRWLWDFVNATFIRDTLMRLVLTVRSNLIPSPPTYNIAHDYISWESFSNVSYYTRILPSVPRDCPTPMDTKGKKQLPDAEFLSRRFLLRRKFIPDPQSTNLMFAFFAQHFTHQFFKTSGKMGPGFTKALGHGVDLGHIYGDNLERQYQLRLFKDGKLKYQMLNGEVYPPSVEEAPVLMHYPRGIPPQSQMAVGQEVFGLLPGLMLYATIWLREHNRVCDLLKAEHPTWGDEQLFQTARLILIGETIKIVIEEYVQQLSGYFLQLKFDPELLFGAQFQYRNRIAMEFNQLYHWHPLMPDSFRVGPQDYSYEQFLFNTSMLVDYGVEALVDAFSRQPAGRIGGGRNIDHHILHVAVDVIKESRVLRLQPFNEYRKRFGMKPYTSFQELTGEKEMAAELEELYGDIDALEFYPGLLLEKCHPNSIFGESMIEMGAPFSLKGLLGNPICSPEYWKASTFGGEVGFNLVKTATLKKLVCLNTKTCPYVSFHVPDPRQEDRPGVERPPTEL
Experiment: Inhibition of Ovis aries (sheep) COX1 using arachidonic acid as substrate using cyclic naphthalene hydrazide by chemiluminescence assay

Row | pIC50 | SMILES
1 | 4.98 | CC(=O)Nc1ccc(-c2nc(-c3ccc(S(C)(=O)=O)cc3)c(-c3ccccc3)[nH]2)cc1
2 | 4.95 | CS(=O)(=O)c1ccc(-c2nc(-c3ccc(O)cc3)[nH]c2-c2ccccc2)cc1
3 | 4.98 | COc1ccc(-c2nc(-c3ccc(S(C)(=O)=O)cc3)c(-c3ccccc3)[nH]2)cc1
4 | 4.99 | CS(=O)(=O)c1ccc(-c2nc(-c3ccc(Cl)cc3)[nH]c2-c2ccccc2)cc1
5 | 4.98 | Cc1ccc(-c2nc(-c3ccc(S(C)(=O)=O)cc3)c(-c3ccccc3)[nH]2)cc1
6 | 4.95 | CS(=O)(=O)c1ccc(-c2nc(-c3ccc(F)cc3)[nH]c2-c2ccccc2)cc1
7 | 5.00 | CS(=O)(=O)c1ccc(-c2nc(-c3ccccc3)[nH]c2-c2ccccc2)cc1
